Source: publication PMC4714869 (Steroids, 2015)
“Also recorded” adds a separate entry of the source.

Assays:
[1] = system: PgR and GREB1 gene expression in MCF-7 cells; assay: Estrogen-responsive gene expression; format: cell-based; settings: for PgR and GREB1 RNA level (gene stimulation): MCF-7, 10^−8 M E2, 10^−6 M Liq or Iso-Liq, 3×10^−6 M L1–L7, 24 h
[2] = system: proteinase inhibitor 9 (PI9) expression in HepG2 + ERα cells; assay: PI9 gene expression in HepG2 cells stably expressing ERα; settings: 10^−8 M EE2; 3×10^−6 M Liq, Iso-Liq, L1–L7; 24 h
[3] = system: Ki67 gene expression in MCF-7 cells; assay: Ki67 gene expression in MCF-7 cells by qPCR; settings: for suppression of E2-elicited increase in Ki67 mRNA: 3×10^−6 M component with 10^−9 M E2, 24 h; for Ki67 RNA expression (stimulation): 10^−8 M E2, 10^−6 M Liq or Iso-Liq, 3×10^−6 M L1–L7, 24 h
[4] = system: MCF-7 cells; assay: Proliferation of MCF-7 cells; format: cell-based; settings: 6 days; two highest concentrations 10^−6 and 3×10^−6 M
[5] = target: T1, human ERα (Homo sapiens, UniProt P03372); assay: Competitive radiometric binding assay with [3H]-estradiol tracer, ERα; settings: RBA of estradiol set to 100%; 2 nM [3H]-estradiol, 18–24 h at 0 °C
T1 sequence (P03372 1-595): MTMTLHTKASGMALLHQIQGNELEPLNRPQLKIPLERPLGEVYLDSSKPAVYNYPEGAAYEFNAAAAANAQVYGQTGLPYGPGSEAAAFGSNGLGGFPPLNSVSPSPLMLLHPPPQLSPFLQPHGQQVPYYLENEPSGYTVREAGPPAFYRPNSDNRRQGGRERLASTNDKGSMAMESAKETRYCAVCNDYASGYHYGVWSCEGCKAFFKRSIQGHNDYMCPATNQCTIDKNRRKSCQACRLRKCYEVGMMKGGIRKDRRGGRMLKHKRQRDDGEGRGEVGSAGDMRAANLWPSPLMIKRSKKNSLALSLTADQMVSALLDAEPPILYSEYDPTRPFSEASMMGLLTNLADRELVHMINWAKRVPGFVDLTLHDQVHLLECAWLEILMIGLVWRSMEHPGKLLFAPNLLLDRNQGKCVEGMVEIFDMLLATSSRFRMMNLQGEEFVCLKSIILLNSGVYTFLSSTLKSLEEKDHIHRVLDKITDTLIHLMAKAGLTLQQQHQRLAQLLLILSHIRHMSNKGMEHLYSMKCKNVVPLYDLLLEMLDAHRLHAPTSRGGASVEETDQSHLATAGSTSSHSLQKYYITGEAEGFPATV

[6] = target: human ERβ (Homo sapiens, UniProt Q92731); settings: for RBA (mean ± SD) ERβ: RBA of estradiol set to 100%, 2 nM [3H]-estradiol, 18–24 h at 0 °C
Chain of human ERβ (Q92731 whole entry): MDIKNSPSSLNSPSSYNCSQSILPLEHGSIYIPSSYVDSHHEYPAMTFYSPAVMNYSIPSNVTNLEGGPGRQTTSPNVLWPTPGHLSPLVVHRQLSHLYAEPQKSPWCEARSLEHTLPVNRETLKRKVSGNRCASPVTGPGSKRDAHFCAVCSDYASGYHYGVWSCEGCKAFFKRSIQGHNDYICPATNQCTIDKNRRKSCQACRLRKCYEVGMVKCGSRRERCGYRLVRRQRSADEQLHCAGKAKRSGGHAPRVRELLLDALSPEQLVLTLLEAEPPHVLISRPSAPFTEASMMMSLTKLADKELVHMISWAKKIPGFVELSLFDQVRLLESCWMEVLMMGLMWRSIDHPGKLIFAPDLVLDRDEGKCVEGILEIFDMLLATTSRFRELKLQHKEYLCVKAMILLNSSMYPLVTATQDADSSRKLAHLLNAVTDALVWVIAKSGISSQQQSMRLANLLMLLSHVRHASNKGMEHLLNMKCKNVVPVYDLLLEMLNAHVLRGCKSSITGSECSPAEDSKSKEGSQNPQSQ

[7] = system: E2-stimulated PgR and GREB1 gene expression in MCF-7 cells; assay: Inhibition of E2-stimulated PgR and GREB1 gene expression in MCF-7 cells; settings: 3×10^−6 M component with 10^−9 M E2, 24 h

| Structure (SMILES) | PgR and GREB1 RNA level (gene stimulation) [1] | PI9 expression in HepG2 + ERα cells [2] | effect of antiestrogen cotreatment on increases in Ki67 RNA expression ([3]; 10^−6 M ICI 182,780, 24 h) | stimulation of MCF-7 cell proliferation [4] | RBA (mean ± SD) ERα [5] [%] | ERβ/ERα ratio of RBA [6] | RBA (mean ± SD) ERβ [6] [%] | suppression of E2-elicited increase in Ki67 mRNA [3] | Ki67 RNA expression (stimulation) [3] | block of E2-stimulated GREB1 expression [7] | block of E2-stimulated PgR expression [7] | potency in stimulating estrogen-regulated genes, fold less than E2 ([1]; efficacy nearly equivalent to E2) | preference for ERβ over ERα ([6]; from RBA values) |
| --- | --- | --- | --- | --- | --- | --- | --- | --- | --- | --- | --- | --- | --- |
| C[C@]12CC[C@@H]3c4ccc(O)cc4CC[C@H]3[C@@H]1CC[C@@H]2O [E2, estradiol, reference compound] | markedly increased |  |  |  |  |  |  |  |  |  |  |  |  |
| C#C[C@]1(O)CC[C@H]2[C@@H]3CCc4cc(O)ccc4[C@H]3CC[C@@]21C [EE2, ethinyl estradiol] |  | stimulated expression |  |  |  |  |  |  |  |  |  |  |  |
| C[C@]12CC[C@@H]3c4ccc(O)cc4C[C@@H](CCCCCCCCC[S+]([O-])CCCC(F)(F)C(F)(F)F)[C@H]3[C@@H]1CC[C@@H]2O (some centres unmarked) [ICI 182,780, reference compound] |  |  | eliminated |  |  |  |  |  |  |  |  |  |  |
| O=C(/C=C/c1ccc(O)cc1)c1ccc(O)cc1O [Iso-Liq, Iso-liquiritigenin, reference compound] | markedly increased | stimulated expression |  | stimulated cell proliferation quite strongly |  |  |  |  |  |  |  |  |  |
| CC1(C)C=Cc2c(ccc3c2OC[C@@H](c2ccc(O)cc2O)C3)O1 [L1, Glabridin] | little or no change in gene expression; also recorded: did not stimulate expression of PgR or GREB1 |  |  | inactive in eliciting elevation of cell proliferation | 0.075 ± 0.015 | 1.2 | 0.091 ± 0.001 | not effective in suppressing | did not stimulate Ki67 gene expression | only partially | almost fully |  |  |
| COc1ccc(-c2coc3cc(O)ccc3c2=O)cc1O [L2, Calycosin] | effective in increasing PgR and GREB1 expression |  |  |  | 0.010 ± 0.004 | 2.7 | 0.027 ± 0.004 |  |  |  |  |  |  |
| COc1ccc(C2COc3cc(O)ccc3C2)c(O)c1 (centres unmarked) [L4, Vestitol] | effective in increasing PgR and GREB1 expression |  |  | stimulated cell proliferation quite strongly | 0.062 ± 0.008 | 0.6 | 0.039 ± 0.011 |  |  |  |  | ca. 10,000 fold |  |
| COc1c(CC=C(C)C)c(O)cc2c1C[C@H](c1ccc(O)cc1O)CO2 [L5, Glyasperin C] | little or no change in gene expression; also recorded: did not stimulate expression of PgR or GREB1 |  |  | inactive in eliciting elevation of cell proliferation | 0.010 ± 0.001 | 11.1 | 0.111 ± 0.004 | not effective in suppressing | did not stimulate Ki67 gene expression | only partially | almost fully |  | greater than 10 fold |
| COc1c(CC=C(C)C)c(O)cc2oc(=O)c(-c3ccc(O)cc3O)cc12 [L6, Glycycoumarin] | effective in increasing PgR and GREB1 expression |  |  |  | 0.017 ± 0.001 | 2.4 | 0.040 ± 0.001 |  | all compounds except for L1, L5, L6 and L7 increased Ki67 RNA expression |  |  |  |  |
| COc1c(CC=C(C)C)c(O)cc(O)c1-c1coc2cc(O)ccc2c1=O [L7, Glicoricone] | little or no change in gene expression; also recorded: did not stimulate expression of PgR or GREB1 |  |  | inactive in eliciting elevation of cell proliferation | 0.008 ± 0.001 | 2.4 | 0.019 ± 0.004 | partially suppressed | did not stimulate Ki67 expression | only partially; also recorded: most effective antagonist of GREB1 stimulation by E2 | almost fully |  |  |
| O=C1C[C@@H](c2ccc(O)cc2)Oc2cc(O)ccc21 [Liq, Liquiritigenin, reference compound] | markedly increased | stimulated expression |  | stimulated cell proliferation quite strongly | <0.001 |  |  |  |  |  |  |  |  |
